Assay [1] relates to AMPK substrate, acetyl-CoA carboxylase (ACC). In words: pACC HTRF assay in U2OS Flp-In T-REx cells. Type of assay: cell-based. The settings on record: 1 h, varying concentrations, dose-dependent. On the procedure: (§1) U2OS Flp-In T-REx cells were seeded at 100 K in a 96-well plate and left overnight at 37 C in DMEM GlutaMAX (Thermo Fisher Scientific) supplemented with 10% (vol/vol) FBS and 100 U/ml penicillin G, and 100 μg/ml streptomycin. Cells were treated for 1 h with varying concentrations of Lusianthridin in media lacking FBS and then cells were lysed in 50 μl of Cisbio lysis buffer #1 supplemented with blocking solution as per the manufacturer's protocol (Cisbio). Cells were lysed for 30 mins at room temperature before 16 μl of lysate was incubated with 4 μl of the HTRF antibodies (1:40 dilution of the acceptor and donor (p)ACC antibodies, as per the manufacturers protocol). Lysates were incubated overnight with the antibodies before 665 nm/620 nm ratio was determined using a MolecularDevices i3 plate reader (with a HTRF cartridge add-on). For western blot analysis, SDS-sample buffer was added to the remainder of the lysate, denatured at 95 C and then subjected to western blot analysis with phospho-specific and total ACC antibodies (Cell Signalling). Bands were visualized by incubating with Li-Cor secondary antibody and scanned on a Li-Cor Odyssey machine.

The test system of assay [2] is differentiated C2C12 cells. Briefly: Glucose uptake (3H-2-deoxyglucose) into differentiated C2C12 cells. The assay is classed as cell-based. The settings on record: Lusianthridin 100 μM for 4 h at 37 C. How it is done: C2C12 cells were maintained in DMEM GlutaMAX supplemented with 10% (vol/vol) FBS and 100 U/ml penicillin G, and 100 μg/ml streptomycin. C2C12 myoblasts were differentiated into myotubes by 7 days of culture in DMEM GlutaMAX supplemented with 2% (vol/vol) horse serum and antibiotics. Cells were transferred to serum-free media for 24 hours, before equilibrating with bicarbonate-free medium prior to treatment. Cells were treated with Control (DMSO 1% final concentration) or 100 μM Lusianthridin in the presence of ^3H-2-deoxyglucose (in Krebs-Hepes buffer containing sodium pyruvate). Cells were lysed and the quantity of ^3H determined in these samples using a scintillation counter.
Activation of AMPK in muscle cells has been previously shown to increase glucose uptake. […] Differentiated C2C12 cells were treated with either control or 100 μM Lusianthridin for 4 h at 37 C. Glucose uptake was determined by monitoring the uptake of ^3H-2-deoxyglucose into cells. […] This is consistent with the important role of AMPK in mediating glucose uptake in muscle.

For assay [3], the system named is AMPK α2β1γ1 ΔCBM mutant (211 ΔCBM). In words: AMPK in vitro activity assay (HTRF-KinEASE), ΔCBM mutant. The settings on record: carbohydrate-binding module deleted. Type of assay: biochemical. On the procedure:
(§2) Lusianthridin (CAS 87530-30-1) was isolated from Thunia alba fruit. It was sourced from Analyticon (NP-012362). The plant was purchased through Analyticon's biomaterial supplier in 2003. The country of origin is Nepal. The AMPK heterotrimers were expressed in bacteria and purified through the His-α subunit by nickel purification. AMPK complexes were purified through gel filtration and phosphorylated by incubation with CaMKKβ, and further purified with a final gel filtration purification step. Phosphorylated purified AMPK was incubated with varying concentrations of ligand for 30 mins using substrate and reagents from the HTRF-KinEASE Cisbio assay kit (STK S1 Kit). Phosphorylation of the substrate was measured by incubating with donor and acceptor antibodies for 2 h at room temperature as per the manufacturer's protocol (and Coulerie et al., (2016) PMID: 27792327) and phosphorylated peptide detected by performing HTRF. The 665 nm/620 nm ratio was determined and the results are plotted as fold activation compared to the respective AMPK complex without any compound.
Background: TR-FRET usually uses a lanthanide donor and a delayed reading to cut background.

Assay [4] concerns AMPK substrate, acetyl-CoA carboxylase (ACC). Briefly: Western blot of pACC / total ACC in U2OS Flp-In T-REx lysates. Type of assay: cell-based. The following applies: varying concentrations. How it is done:
as §1
(In general: A western blot detects proteins with antibodies after separation by electrophoresis.)

The target in assay [5] is T1, AMPKα2β1γ1 (211) (Homo sapiens, UniProt P54619+P54646+Q9Y478).
T1 construct: His; made in house; host or cells: bacteria
In words: AMPK in vitro activity assay (HTRF-KinEASE), phosphorylated bacterially-expressed complex. Type of assay: biochemical. The following applies: fold activation vs complex without compound; 30 mins incubation. How it is done: as §2

Assay [6] addresses T2, AMPKα1β1γ1 (111) (Homo sapiens, UniProt P54619+Q13131+Q9Y478).
T2 construct: His; made in house; host or cells: bacteria
Briefly: AMPK in vitro activity assay (HTRF-KinEASE), α1-containing complex. The following applies: fold activation vs complex without compound. Type of assay: biochemical. On the procedure:
as §2

The target of assay [7] is T3, AMPK α2β1γ1 S108A mutant (211 S108A) (Homo sapiens, UniProt P54619+P54646+Q9Y478, S108A).
T3 construct: His; made in house; host or cells: bacteria
In words: AMPK in vitro activity assay (HTRF-KinEASE), β1 S108A mutant. Type of assay: biochemical. How it is done:
as §2

Assay [8] deals with C2C12 AMPKα1α2+/+ cells. In words: Glucose uptake (3H-2-deoxyglucose) in differentiated C2C12 AMPKα1α2+/+ cells. Type of assay: cell-based, murine. The text has this: C2C12 AMPK α1α2 double knockout cell lines were generated by transient transfection of wild type cells with plasmids containing Cas9 enzyme linked to green fluorescent protein expression and Cas9 guide RNA sequences targeting the murine AMPK α1 subunit (sc-430618, SantaCruz) and the murine AMPK α2 subunit (sc-430803, SantaCruz). Cells positive for green fluorescent protein expression were single cell sorted by flow cytometry into 96-well plates containing growth medium and analysed for loss of AMPK signaling following expansion of the clones.
Differentiated C2C12 AMPKα1α2+/+ and AMPKα1α2−/− cells were treated with either vehicle (0.2% DMSO), 30 μM or 100 μM Lusianthridin for 1 h at 37° C. […] Finally, differentiated C2C12 AMPKα1α2+/+ and AMPKα1α2−/− cells were treated with either vehicle (0.2% DMSO) or 100 μM Lusianthridin in the presence or absence of 15 nM Wortmanin for 1 h at 37° C. For the Wortmanin experiments, differentiated C2C12 cells were pre-incubated with DMSO or Wortmanin for 1 h prior to treatment.
Glucose uptake was determined by monitoring the uptake of 3H-2-deoxyglucose into cells. C2C12 AMPKα1α2+/+ and AMPKα1α2−/− cells were maintained in DMEM GlutaMAX supplemented with 20% (vol/vol) FBS and 100 U/ml penicillin G, and 100 μg/ml streptomycin. […] Cells were lysed and the quantity of ^3H determined in these samples using a scintillation counter.

T2 sequence (Q13131 whole entry): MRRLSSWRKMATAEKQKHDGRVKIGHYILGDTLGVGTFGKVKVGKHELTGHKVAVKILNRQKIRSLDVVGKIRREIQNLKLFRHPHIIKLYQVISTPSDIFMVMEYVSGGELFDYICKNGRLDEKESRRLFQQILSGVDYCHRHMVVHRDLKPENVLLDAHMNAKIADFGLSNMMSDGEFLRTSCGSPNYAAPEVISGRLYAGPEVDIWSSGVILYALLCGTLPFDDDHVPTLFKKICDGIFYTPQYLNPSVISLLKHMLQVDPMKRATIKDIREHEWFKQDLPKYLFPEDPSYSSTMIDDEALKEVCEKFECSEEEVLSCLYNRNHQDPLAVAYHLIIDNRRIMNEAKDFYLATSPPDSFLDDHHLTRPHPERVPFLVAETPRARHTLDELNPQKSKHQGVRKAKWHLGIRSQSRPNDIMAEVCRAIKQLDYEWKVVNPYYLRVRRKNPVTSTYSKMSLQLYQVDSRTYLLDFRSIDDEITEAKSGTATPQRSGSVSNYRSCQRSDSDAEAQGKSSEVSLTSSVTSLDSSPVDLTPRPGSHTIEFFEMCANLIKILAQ
T2 sequence (Q9Y478 whole entry): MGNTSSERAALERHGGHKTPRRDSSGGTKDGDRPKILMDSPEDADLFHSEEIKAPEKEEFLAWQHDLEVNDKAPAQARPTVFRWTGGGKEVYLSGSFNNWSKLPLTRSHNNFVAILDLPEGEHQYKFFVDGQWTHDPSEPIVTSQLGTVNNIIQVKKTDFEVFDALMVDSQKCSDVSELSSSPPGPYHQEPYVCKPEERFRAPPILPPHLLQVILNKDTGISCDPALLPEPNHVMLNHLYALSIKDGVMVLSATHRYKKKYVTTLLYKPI
T2 sequence (P54619 whole entry): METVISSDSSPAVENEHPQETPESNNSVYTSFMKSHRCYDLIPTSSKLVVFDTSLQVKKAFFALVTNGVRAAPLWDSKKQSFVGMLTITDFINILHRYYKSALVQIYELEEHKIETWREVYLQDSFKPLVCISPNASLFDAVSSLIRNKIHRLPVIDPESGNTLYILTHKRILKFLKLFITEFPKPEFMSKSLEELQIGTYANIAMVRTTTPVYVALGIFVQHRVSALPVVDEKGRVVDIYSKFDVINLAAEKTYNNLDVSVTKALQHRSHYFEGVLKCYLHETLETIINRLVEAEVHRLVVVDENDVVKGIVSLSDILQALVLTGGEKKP
T1 sequence (P54646 whole entry): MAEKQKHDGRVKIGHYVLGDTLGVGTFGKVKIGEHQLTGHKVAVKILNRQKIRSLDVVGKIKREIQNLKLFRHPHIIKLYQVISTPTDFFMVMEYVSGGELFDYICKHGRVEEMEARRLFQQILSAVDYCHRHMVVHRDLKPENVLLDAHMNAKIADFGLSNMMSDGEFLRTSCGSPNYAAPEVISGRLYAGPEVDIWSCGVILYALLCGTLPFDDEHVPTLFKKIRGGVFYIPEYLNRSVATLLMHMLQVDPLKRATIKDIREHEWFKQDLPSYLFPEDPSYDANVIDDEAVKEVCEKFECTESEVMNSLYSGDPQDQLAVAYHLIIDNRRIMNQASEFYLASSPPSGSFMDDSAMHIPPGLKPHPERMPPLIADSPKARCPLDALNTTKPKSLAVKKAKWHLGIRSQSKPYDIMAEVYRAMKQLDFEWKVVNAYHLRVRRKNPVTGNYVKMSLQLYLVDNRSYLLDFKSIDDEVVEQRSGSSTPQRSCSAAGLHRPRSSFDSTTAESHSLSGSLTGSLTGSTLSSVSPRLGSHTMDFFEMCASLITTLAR
T1 sequence (Q9Y478 whole entry): as the sequence (Q9Y478 whole entry) above
T1 sequence (P54619 whole entry): as the sequence (P54619 whole entry) above
T3 sequence (P54646 whole entry): as the sequence (P54646 whole entry) above
T3 sequence (Q9Y478 whole entry S108A): as the sequence (Q9Y478 whole entry) above, with S108A counted along it
T3 sequence (P54619 whole entry): as the sequence (P54619 whole entry) above

As for `COc1cc(O)c2c(c1)CCc1cc(O)ccc1-2` [Lusianthridin, 7-Methoxy-9,10-dihydrophenanthrene-2,5-diol], the “phosphorylation of the AMPK substrate ACC (pACC HTRF)” value in assay [1] was “increases”. In assay [2], the “fold increase in glucose uptake relative to control” value is reported as around 2 fold. Moreover, the “activation of α2β1γ1 ΔCBM mutant” value in assay [3] is “does not activate”. The “phosphorylation of ACC by western blot (AMPK activation in cells)” value in assay [4] is on record as “activates AMPK in cells”. For the same molecule, the “activation of bacterially-expressed AMPKα2β1γ1 complexes” value in assay [5] was “Activates”. For the same molecule, the “activation of bacterially-expressed AMPKα1β1γ1 complexes” value in assay [6] is given as “Activates”. In assay [7], the “activation of AMPK complexes with the β1 S108A mutation” value was “does not activate”. Also, in assay [8] (C2C12 AMPKα1α2+/+, 30 or 100 μM Lusianthridin, 300 nM Insulin, 1 h at 37° C), the “glucose uptake (fold change relative to control)” value is recorded as “increase in glucose uptake”. In addition, the “effect of Wortmanin on stimulated glucose uptake” value in assay [8] (in the presence of 15 nM Wortmanin (1 h pre-incubation), 100 μM Lusianthridin or 300 nM Insulin, 1 h) is given as “no effect”.

The values above are taken from US11583507B2, “Direct AMPK activator compounds” (SOCIETE DES PRODUITS NESTLE S.A., priority 2018, dated 2023).
